# Experimental data: patent US4091114A, “Pharmaceutically active 2-omega-aminoalkoxydiphenylmethanes” (Mitsubishi Chemical Industries Limited, priority 1976, dated 1978)
# Where a name gives a salt, the structure may show the parent alone.
# What was measured:
# [1] = tested on: reserpine induced hypothermia; test: Antireserpine activity in mice (antagonism of reserpine induced hypothermia); assay type: in vivo
# [2] = in vivo; settings: mouse, ip
# [3] = tested on: mice; settings: mouse, in vivo, ip
# [4] = mice, i.p., reserpine 5 mg/kg i.p., Amitriptyline = 1
smiles,measurement,setting,value
CN(C)CCCCCOc1ccccc1Cc1ccccc1 [2-(5-dimethylaminopentyloxy)diphenylmethane hydrochloride],"Antireserpine activity, Relative Potency",[1]; [4],0.23
same,antidepressant activity (in words),"[1]; mouse, in vivo",inferior antidepressant activity
CNCCCCCOc1ccccc1Cc1ccccc1 [2-(5-methylaminopentyloxy)diphenylmethane hydrochloride],"Antireserpine activity, Relative Potency","[1]; mouse, in vivo",0.54
same,LD50,[2],160 mg/kg
CCNCCCCOc1ccccc1Cc1ccccc1 [2-(4-ethylaminobutoxy)diphenylmethane hydrochloride],"Antireserpine activity, Relative Potency","[1]; mouse, in vivo",0.53
same,LD50,[2],120 mg/kg
CN(C)CCCOc1ccccc1Cc1ccccc1 [2-(3-dimethylaminopropoxy)diphenylmethane hydrochloride],antidepressant activity (in words),"[1]; mouse, in vivo",no such activity
CN(C)CCCCOc1ccccc1Cc1ccccc1.Cl [2-(4-dimethylaminobutoxy) diphenyl methane hydrochloride],"Antireserpine activity, Relative Potency","[1]; mouse, in vivo",0
c1ccc(Cc2ccccc2OCCCCN2CCCCC2)cc1 [2-[4-(1-piperidyl)butoxy]diphenylmethane hydrochloride],"Antireserpine activity, Relative Potency",[1]; [4],0.41
CN(C)CCC=C1c2ccccc2CCc2ccccc21 [Amitriptyline],LD50,[3],65 mg/kg
